In ChEMBL document CHEMBL6078700, “Synthesis of novel deuterated EGFR/ALK dual-target inhibitors and their activity against non-small cell lung cancer” (Eur J Med Chem, 2025):

What was measured:
EML4-ALK = EML4-ALK (Homo sapiens, UniProt Q9UM73); assay: Inhibition of EML4-ALK (unknown origin) phosphorylation by ELISA; assay type: protein assay
[1] = Metabolic stability in human liver microsomes assessed as half life at 1 uM measured for 60 mins by LC-MS/MS analysis; assay type: ADME, Microsome
[2] = Antiproliferative activity against human NCI-H1975 cells expressing EGFR mutation incubated for 48 hrs by CCK8 assay
NCI-H2228 = assay: Antiproliferative activity against human NCI-H2228 cells expressing EML4-ALK fusion incubated for 48 hrs by CCK8 assay; conditions: Homo sapiens, NCI-H2228, 48 h
NCI-H1975 [3] = assay: Antitumor activity against human NCI-H1975 cells xenografted in BALB/c-nu mouse at 30 mg/kg, po administered daily orally for 7 days relative to control; assay type: functional; conditions: time 7 day; for inhibition in vivo at 30 mg/kg: Mus musculus, NCI-H1975, 168 h, read-out: TGI
NCI-H522 = assay: Antiproliferative activity against human NCI-H522 cells expressing wild-type EGFR/ALK incubated for 48 hrs by CCK8 assay
BaF3 = assay: Antiproliferative activity against mouse BaF3 cells expressing EML4-ALK fusion incubated for 48 hrs by CCK8 assay
PC-9 = assay: Antiproliferative activity against human PC-9 cells expressing EGFR mutation incubated for 48 hrs by CCK8 assay
[4] = Metabolic stability in human liver microsomes assessed as clearance at 1 uM measured for 60 mins by LC-MS/MS analysis; assay type: ADME, Microsome; conditions: read-out: CLH
NCI-H1975 [5] = assay: Induction of apoptosis in human NCI-H1975 cells assessed as early apoptotic cells at 5 nM incubated for 48 hrs by allo-Phycocyanin-Annexin V staining based flow cytometry (reference value: 2.27 %); assay type: functional
NCI-H1975 [6] = assay: Induction of cell cycle arrest in human NCI-H1975 cells assessed as accumulation at S phase at 5 nM incubated for 24 hrs by PI/RNase staining based flow cytometry (reference value: 17.1 %); assay type: functional
NCI-H1975 [7] = assay: Induction of apoptosis in human NCI-H1975 cells assessed as necrotic cells at 5 nM incubated for 48 hrs by allo-Phycocyanin-Annexin V staining based flow cytometry (reference value: 0.031 %); assay type: functional
NCI-H1975 [8] = assay: Induction of apoptosis in human NCI-H1975 cells assessed as viable cells at 5 nM incubated for 48 hrs by allo-Phycocyanin-Annexin V staining based flow cytometry (reference value: 93.6 %); assay type: functional
NCI-H1975 [9] = assay: Induction of cell cycle arrest in human NCI-H1975 cells assessed as accumulation at G0/G1 phase at 5 nM incubated for 24 hrs by PI/RNase staining based flow cytometry (reference value: 50.19 %); assay type: functional
NCI-H1975 [10] = assay: Induction of cell cycle arrest in human NCI-H1975 cells assessed as accumulation at G2/M phase at 5 nM incubated for 24 hrs by PI/RNase staining based flow cytometry (reference value: 32.71 %); assay type: functional
NCI-H1975 [11] = assay: Induction of apoptosis in human NCI-H1975 cells assessed as late apoptotic cells at 5 nM incubated for 48 hrs by allo-Phycocyanin-Annexin V staining based flow cytometry (reference value: 4.08 %); assay type: functional
NCI-H1975 [12] = assay: Antitumor activity against human NCI-H1975 cells xenografted in BALB/c-nu mouse at 30 mg/kg, po administered daily orally for 21 days relative to control; assay type: functional; conditions: time 21 day

Chain of EML4-ALK (Q9UM73 whole entry): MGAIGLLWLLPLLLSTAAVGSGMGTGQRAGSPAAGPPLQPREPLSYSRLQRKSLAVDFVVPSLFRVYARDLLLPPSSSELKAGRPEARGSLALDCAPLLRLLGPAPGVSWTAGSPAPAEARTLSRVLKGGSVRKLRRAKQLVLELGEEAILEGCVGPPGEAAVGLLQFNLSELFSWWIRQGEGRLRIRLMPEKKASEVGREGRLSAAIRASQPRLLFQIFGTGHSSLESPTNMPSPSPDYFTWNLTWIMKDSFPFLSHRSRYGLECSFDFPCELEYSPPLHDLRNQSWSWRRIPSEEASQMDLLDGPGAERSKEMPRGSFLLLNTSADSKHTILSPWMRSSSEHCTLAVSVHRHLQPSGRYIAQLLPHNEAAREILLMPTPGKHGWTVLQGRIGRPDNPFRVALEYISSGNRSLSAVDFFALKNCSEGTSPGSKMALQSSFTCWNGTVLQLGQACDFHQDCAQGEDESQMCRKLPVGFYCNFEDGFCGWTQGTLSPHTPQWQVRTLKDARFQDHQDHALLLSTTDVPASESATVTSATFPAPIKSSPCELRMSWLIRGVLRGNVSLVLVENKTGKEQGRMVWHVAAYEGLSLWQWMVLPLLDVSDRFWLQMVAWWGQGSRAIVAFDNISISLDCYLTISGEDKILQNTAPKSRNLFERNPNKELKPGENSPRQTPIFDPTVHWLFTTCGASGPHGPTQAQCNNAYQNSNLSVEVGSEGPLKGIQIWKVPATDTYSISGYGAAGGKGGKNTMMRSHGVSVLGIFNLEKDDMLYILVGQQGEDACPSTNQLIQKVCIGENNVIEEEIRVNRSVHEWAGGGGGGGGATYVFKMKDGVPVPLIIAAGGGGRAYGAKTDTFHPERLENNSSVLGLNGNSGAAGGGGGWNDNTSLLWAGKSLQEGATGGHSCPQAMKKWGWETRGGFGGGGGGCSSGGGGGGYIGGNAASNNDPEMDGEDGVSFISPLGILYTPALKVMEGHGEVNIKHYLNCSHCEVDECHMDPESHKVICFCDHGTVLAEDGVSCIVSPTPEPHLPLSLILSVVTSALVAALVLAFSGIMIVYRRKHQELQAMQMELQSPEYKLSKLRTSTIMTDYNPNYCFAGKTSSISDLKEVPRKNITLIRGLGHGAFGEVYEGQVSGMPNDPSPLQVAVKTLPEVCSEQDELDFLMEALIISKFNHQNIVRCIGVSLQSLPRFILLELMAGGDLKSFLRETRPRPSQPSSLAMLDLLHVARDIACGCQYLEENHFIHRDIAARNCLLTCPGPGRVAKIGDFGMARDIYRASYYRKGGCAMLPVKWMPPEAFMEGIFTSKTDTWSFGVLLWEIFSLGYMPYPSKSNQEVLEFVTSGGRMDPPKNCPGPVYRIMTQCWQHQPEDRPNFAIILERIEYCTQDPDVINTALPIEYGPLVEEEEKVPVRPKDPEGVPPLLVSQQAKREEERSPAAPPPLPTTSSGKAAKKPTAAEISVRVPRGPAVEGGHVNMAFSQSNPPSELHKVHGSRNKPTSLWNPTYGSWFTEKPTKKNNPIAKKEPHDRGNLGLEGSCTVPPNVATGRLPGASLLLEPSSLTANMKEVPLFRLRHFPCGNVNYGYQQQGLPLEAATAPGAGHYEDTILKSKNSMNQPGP
Chain of EML4-ALK (Q9HC35 whole entry, further chain): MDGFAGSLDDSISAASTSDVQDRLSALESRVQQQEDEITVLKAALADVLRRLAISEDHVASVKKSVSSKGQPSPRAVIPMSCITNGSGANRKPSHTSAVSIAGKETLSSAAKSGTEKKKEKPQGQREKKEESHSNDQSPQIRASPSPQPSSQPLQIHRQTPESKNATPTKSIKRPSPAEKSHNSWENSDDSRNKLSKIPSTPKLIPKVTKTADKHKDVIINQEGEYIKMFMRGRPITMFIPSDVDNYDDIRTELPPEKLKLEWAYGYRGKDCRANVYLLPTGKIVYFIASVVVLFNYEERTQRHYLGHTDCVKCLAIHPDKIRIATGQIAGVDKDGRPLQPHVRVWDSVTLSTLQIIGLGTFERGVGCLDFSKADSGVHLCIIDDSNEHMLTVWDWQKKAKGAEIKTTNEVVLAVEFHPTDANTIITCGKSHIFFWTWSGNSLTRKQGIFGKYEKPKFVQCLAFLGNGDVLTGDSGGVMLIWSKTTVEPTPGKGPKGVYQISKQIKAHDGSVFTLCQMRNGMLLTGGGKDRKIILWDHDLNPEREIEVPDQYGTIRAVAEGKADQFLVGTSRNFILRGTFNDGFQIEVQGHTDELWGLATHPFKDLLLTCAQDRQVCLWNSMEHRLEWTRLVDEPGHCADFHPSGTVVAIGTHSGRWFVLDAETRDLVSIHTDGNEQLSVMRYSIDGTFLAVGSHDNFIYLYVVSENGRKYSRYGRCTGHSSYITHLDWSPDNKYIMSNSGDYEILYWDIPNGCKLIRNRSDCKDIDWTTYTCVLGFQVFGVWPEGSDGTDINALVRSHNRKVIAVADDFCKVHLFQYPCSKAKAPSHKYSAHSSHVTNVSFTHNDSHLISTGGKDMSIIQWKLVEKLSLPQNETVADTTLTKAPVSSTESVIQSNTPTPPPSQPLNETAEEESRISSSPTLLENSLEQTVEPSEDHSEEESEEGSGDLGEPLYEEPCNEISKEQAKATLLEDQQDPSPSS

C=CC(=O)Nc1cc(Nc2ncc(Cl)c(Nc3cccc(F)c3[S+]([O-])CC)n2)c(OC)cc1N(C)CCN(C)C (centres undefined)
IC50 (EML4-ALK): 4.47 nM
half-life at 1 µM [1]: 223 min
IC50 ([2]; Homo sapiens, NCI-H1975, 48 h): 2.79 nM
IC50 (NCI-H2228): 66.8 nM
inhibition in vivo at 30 mg/kg (NCI-H1975 [3]): 75.3%
IC50 (NCI-H522; Homo sapiens, NCI-H522, 48 h): 7860 nM
IC50 (BaF3; Mus musculus, BaF3, 48 h): 4.03 nM
IC50 (PC-9; Homo sapiens, PC-9, 48 h): 3.14 nM
microsomal CLint at 1 µM [4]: 15.5 µL/min/mg

C=CC(=O)Nc1cc(Nc2ncc(Cl)c(Nc3cccc(Cl)c3[S+]([O-])C(C)C)n2)c(OC)cc1N(C)CCN(C)C (centres undefined)
IC50 (EML4-ALK): 7.39 nM
half-life at 1 µM [1]: 37.7 min
IC50 ([2]; Homo sapiens, NCI-H1975, 48 h): 7.55 nM
IC50 (NCI-H2228): 22.5 nM
IC50 (NCI-H522; Homo sapiens, NCI-H522, 48 h): 2380 nM
IC50 (BaF3; Mus musculus, BaF3, 48 h): 9.31 nM
IC50 (PC-9; Homo sapiens, PC-9, 48 h): 4.05 nM
microsomal CLint at 1 µM [4]: 92 µL/min/mg

C=CC(=O)Nc1cc(Nc2ncc(Cl)c(Nc3cccc(Cl)c3[S+]([O-])CC)n2)c(OC)cc1N(C)CCN(C)C (centres undefined)
IC50 (EML4-ALK): 7.32 nM
half-life at 1 µM [1]: 52 min
IC50 ([2]; Homo sapiens, NCI-H1975, 48 h): 3.76 nM
IC50 (NCI-H2228): 54.2 nM
IC50 (NCI-H522; Homo sapiens, NCI-H522, 48 h): 2420 nM
IC50 (BaF3; Mus musculus, BaF3, 48 h): 36 nM
IC50 (PC-9; Homo sapiens, PC-9, 48 h): < 0.001 nM
microsomal CLint at 1 µM [4]: 66.7 µL/min/mg

[2H]C([2H])([2H])C([2H])([2H])[S+]([O-])c1cc(Cl)ccc1Nc1nc(Nc2cc(NC(=O)C=C)c(N(C)CCN(C)C)cc2OC)ncc1Cl (centres undefined)
IC50 (EML4-ALK): 8.81 nM
half-life at 1 µM [1]: 50.5 min
IC50 ([2]; Homo sapiens, NCI-H1975, 48 h): 3.88 nM
IC50 (NCI-H2228): 32.4 nM
IC50 (NCI-H522; Homo sapiens, NCI-H522, 48 h): 2710 nM
IC50 (BaF3; Mus musculus, BaF3, 48 h): 3.61 nM
IC50 (PC-9; Homo sapiens, PC-9, 48 h): 3.91 nM
microsomal CLint at 1 µM [4]: 68.7 µL/min/mg

COc1cc(N2CCC(N3CCN(C)CC3)CC2)ccc1Nc1ncc(Cl)c(Nc2ccccc2P(C)(C)=O)n1 [BRIGATINIB]
IC50 ([2]; Homo sapiens, NCI-H1975, 48 h): 484 nM
IC50 (NCI-H2228): 28.9 nM
IC50 (NCI-H522; Homo sapiens, NCI-H522, 48 h): 4610 nM
IC50 (BaF3; Mus musculus, BaF3, 48 h): 7.46 nM
IC50 (PC-9; Homo sapiens, PC-9, 48 h): 983 nM

[2H]C([2H])([2H])C([2H])([S+]([O-])c1c(F)cccc1Nc1nc(Nc2cc(NC(=O)C=C)c(N(C)CCN(C)C)cc2OC)ncc1Cl)C([2H])([2H])[2H] (centres undefined)
IC50 (EML4-ALK): 2.09 nM
half-life at 1 µM [1]: 49.1 min
IC50 ([2]; Homo sapiens, NCI-H1975, 48 h): 17.2 nM
IC50 (NCI-H2228): 23.7 nM
IC50 (NCI-H522; Homo sapiens, NCI-H522, 48 h): 2160 nM
IC50 (BaF3; Mus musculus, BaF3, 48 h): 16.1 nM
IC50 (PC-9; Homo sapiens, PC-9, 48 h): 5.56 nM
microsomal CLint at 1 µM [4]: 70.5 µL/min/mg

[2H]C([2H])([2H])C([2H])([2H])[S+]([O-])c1ccccc1Nc1nc(Nc2cc(NC(=O)C=C)c(N(C)CCN(C)C)cc2OC)ncc1Cl (racemic)
IC50 (EML4-ALK): 3.72 nM
half-life at 1 µM [1]: 162 min
IC50 ([2]; nci-h1975): 2.33 nM
IC50 (NCI-H2228): 29.2 nM
inhibition in vivo at 30 mg/kg (NCI-H1975 [3]): 96.8%
IC50 (NCI-H522; nci-h522): 4630 nM
IC50 (BaF3; baf3): 3.53 nM
IC50 (PC-9; pc-9): 6.32 nM
microsomal CLint at 1 µM [4]: 21.4 µL/min/mg

C=CC(=O)Nc1cc(Nc2nccc(-c3cn(C)c4ccccc34)n2)c(OC)cc1N(C)CCN(C)C [OSIMERTINIB]
Activity (NCI-H1975 [5]): 12.2%
Activity (NCI-H1975 [6]): 6.87%
Activity (NCI-H1975 [7]): 0.032%
Activity (NCI-H1975 [8]): 71.1%
Activity (NCI-H1975 [9]): 65.8%
IC50 ([2]; Homo sapiens, NCI-H1975, 48 h): 4.16 nM
IC50 (NCI-H2228): 1840 nM
TGI (NCI-H1975 [3]): 94.73%
Activity (NCI-H1975 [10]): 27.24%
IC50 (NCI-H522; Homo sapiens, NCI-H522, 48 h): 2320 nM
IC50 (BaF3; Mus musculus, BaF3, 48 h): 327 nM
Activity (NCI-H1975 [11]): 16.7%
TGI (NCI-H1975 [12]): 95.05%
IC50 (PC-9; Homo sapiens, PC-9, 48 h): 6.43 nM
